The subject of series [1] is C. parvum. Nature of the series: C. parvum growth assay in HCT-8 cells: indole analog screen and dose-response. Particulars: for Effect on Cp infection in the indole analog screen: 1 mM, HCT-8 cells; for EC50: Cryptosporidium parvum, HCT-8, 24 h, read-out: Cp EC50. It counts as cell-based, Cryptosporidium parvum.
The subject of series [2] is C. parvum. The series is described as follows: Initial screen of metabolites on C. parvum growth in HCT-8 cells. It counts as cell-based, Cryptosporidium parvum. To be noted: 1 mM or 0.1 mM, 24 hpi.
For series [3], the system named is C. parvum. Nature of the series: Antibody and EdU labeling of C. parvum life cycle stages. In kind it is cell-based, Cryptosporidium parvum. To be noted: EC90 concentration; for Effect on Cp life cycle progression: first 24 hpi.
The test system of series [4] is HCT-8 cells. The series is described as follows: Seahorse metabolic assays. To be noted: 18 h; indole 0.5-2 mM, 7CNI 0.25-1 mM. In kind it is cell-based, human.
The test system of series [5] is C. parvum. Nature of the series: Air-liquid interface. To be noted: for Time after washout to significant recovery in Cp growth / Cp growth recovery after washout: ALI; for Time after washout to significant recovery in Cp growth: treated at EC50 for two days; for EC50 / EC90: Cryptosporidium parvum; for EC50: read-out: Cp EC50 in ALI cultures; for EC90: read-out: Cp EC90 in ALI cultures. In kind it is cell-based, Cryptosporidium parvum.

Series [6] concerns C. parvum. Nature of the series: Sliding window treatment with indoles. It counts as cell-based, Cryptosporidium parvum. Particulars: EC90 concentration.
The subject of series [7] is C. parvum-infected GKO mice. Nature of the series: Metabolite treatment of C. parvum-infected GKO mice. To be noted: 50 mg/kg oral gavage twice daily for 7 days. It counts as in vivo, mouse.
The next series concerns Cp mitosome. Nature of the series: MitoTracker staining of indole treated C. parvum. It counts as cell-based, Cryptosporidium parvum. To be noted: indole 1.76 mM, 7CNI 1 mM, CCCP 10 μM; 2 h or 24 h.
Series [8] deals with C. parvum. The series is described as follows: C. parvum growth assay with mitochondrial inhibitors. It counts as cell-based, Cryptosporidium parvum. Particulars: read-out: Cp EC50.
Series [9] has as its system HCT-8 cells. The series is described as follows: Host nuclei ratio with mitochondrial inhibitors. In kind it is cell-based, human. To be noted: 40 μM and 20 μM.
In series [10] the test system is HCT-8 cells. The series is described as follows: Initial metabolite screen: host cell numbers. In kind it is cell-based, human. To be noted: 1 mM.
The test system of series [11] is HCT-8 AhR WT cells or AhR KO cells. The series is described as follows: Seahorse XF Cell Energy Phenotype Test on HCT-8 AhR WT and AhR KO cells. It counts as cell-based, human. Particulars: 18 h; 0.5, 1 or 2 mM; both HCT-8 WT and AhR KO cells.
Series [12] concerns C. parvum. The series is described as follows: C. parvum growth assay in HCT-8 AhR WT vs AhR KO cell lines. Particulars: 1 mM; 24 h. It counts as cell-based, Cryptosporidium parvum.
Series [13] deals with HCT-8 cells. Nature of the series: Transcriptomics. To be noted: 880 μM; 4 or 12 h; FDR p < 0.05, absolute fold change > 2. In kind it is cell-based, human.

Molecules are shown by their SMILES. Counter-ions that a name gives are not always drawn.

Regarding `Cc1c[nH]c2ccccc12` [3-methylindole], the “Effect on Cp infection in the indole analog screen” value with C. parvum [1] is on record as “did inhibit Cp”.

In general, EC50 refers to the midpoint of the concentration-response curve. For the compound `Oc1cccc2[nH]ccc12` [4-Hydroxyindole], the “Effect on Cp growth in the primary metabolite screen” value in the series with C. parvum [2] is on record as “significantly inhibited Cp growth”. In the series with C. parvum [1], the concentration for a half-maximal effect (EC50) came to 1260 µM.

For `O=C(O)Cc1c[nH]c2ccc(O)cc12` [5-Hydroxyindole-3-acetic acid], in the series with C. parvum [2], the “Effect on Cp growth in the primary metabolite screen” value is listed as “no effect on Cp”.

As a reminder, the EC90 is the concentration at which the effect reaches the 90% level. For `N#Cc1cccc2cc[nH]c12` [7-cyanoindole], the “Effect on Cp life cycle progression” value with C. parvum [3] is “delayed progression through sequential life cycle stages”. Also, in the series with HCT-8 cells [4], the “ATP production rate by glycolysis” value was “remained similar between all treatments” and the “ATP production rate by the mitochondria” value is reported as “significant reduction in ATP production rate by the mitochondria”. In the series on C. parvum [5], the “Time after washout to significant recovery in Cp growth” value is 4 days, the 50% effective concentration (EC50) is 379 µM and the EC90 was found to be 688 µM. For the same compound, in the series with C. parvum [6], the “Effect on Cp growth, treatment 0–4 hpi only” value is listed as “neither indole nor 7CNI inhibited Cp growth” and the “Effect on Cp infection, treatment started 4 hpi (4–24 hpi)” value is given as “significantly inhibited Cp infection”. Further, in series [7], the Body weight result was “weighed significantly more than vehicle- or indole-treated mice 5 and 7 dpi”; the Survival rate result is given as “did not significantly increase survival rate”. Moreover, in the series on Cp mitosome, the “MitoTracker staining of Cp mitosomes” value was “significantly decreased MitoTracker staining of Cp mitosomes”.

Consider `N#CC(C#N)=NNc1cccc(Cl)c1` [CCCP, carbonyl cyanide m-chlorophenyl hydrazone], for which the EC50 with C. parvum [8] (HCT-8 cells, 24 h) turned out to be 5 µM. Besides, in the series with Cp mitosome, the “MitoTracker staining of Cp mitosomes” value is on record as “decreases MitoTracker staining in the Cp mitosome”. Besides, the Host toxicity entry in the series on HCT-8 cells [9] was “observed host toxicity”.

Take `C[C@H](CCC(=O)O)[C@H]1CC[C@H]2[C@@H]3CC[C@@H]4C[C@H](O)CC[C@]4(C)[C@H]3C[C@H](O)[C@]12C` [Deoxycholate, sodium deoxycholate]: in the series on HCT-8 cells [10], the “Host toxicity in the initial screen” value is given as “significant host toxicity at 1 mM”. In the series on C. parvum [2], the “Effect on Cp growth in the primary metabolite screen” value is listed as “significantly inhibited Cp growth”.

Consider `C[C@H](CCC(=O)O)[C@H]1CC[C@H]2[C@@H]3CC[C@@H]4C[C@H](O)CC[C@]4(C)[C@H]3C[C@H](O)[C@]12C` [Deoxycholic acid], for which the “Host toxicity in the initial screen” value with HCT-8 cells [10] is recorded as “significant host toxicity at 1 mM”. Besides, in the series with C. parvum [2], the “Effect on Cp growth in the primary metabolite screen” value was “significantly inhibited Cp growth”.

`NC(=O)Cc1c[nH]c2ccccc12` [Indole-3-acetamide]: in the series on C. parvum [1], the “Effect on Cp infection in the indole analog screen” value was “exceptions”.

Take `O=C(O)CCc1c[nH]c2ccccc12` [Indole-3-propionic acid]: the “Effect on Cp infection in the indole analog screen” value with C. parvum [1] is reported as “did inhibit Cp”.

With `c1ccc2[nH]ccc2c1` [Indole], the “Morphology of mature merozoites” value with C. parvum [3] (22 h, 1E12 labeling) was “did not observe any obvious morphological defects in mature merozoites”. In the series with C. parvum [3], the “Effect on Cp life cycle progression” value is listed as “delayed progression through sequential life cycle stages”. Besides, in the series on HCT-8 cells [4], the “ATP production rate by glycolysis” value is “remained similar between all treatments”; the “ATP production rate by the mitochondria” value is recorded as “significant reduction in ATP production rate by the mitochondria”; the “Basal and maximal levels of mitochondrial respiration (OCR)” value was “significantly reduced both basal levels and maximal levels of mitochondrial respiration”; the Spare respiratory capacity entry is reported as “diminished”. Besides, in the series with HCT-8 cells [4], the “Total ATP production rate” value was “lower total ATP production rate”. Further, in the series with C. parvum [2], the “Effect on Cp growth in the primary metabolite screen” value is reported as “significantly inhibited Cp growth”. Also, the “Mitochondrial basal and stressed respiratory rate” value in [11] is “significantly impaired in a dose-dependent manner”. Moreover, the “Cp growth recovery after washout” value in the series with C. parvum [5] (treated at 2 × EC90 for two days) is “no recovery was observed”. Also, in the series on C. parvum [5], the “Time after washout to significant recovery in Cp growth” value amounted to 2 days, the EC50 stood at 577 µM and the 90% effect concentration (EC90) was determined as 1890 µM. Also, in the series on C. parvum [5] (treated at EC90 for two days), the “Cp growth recovery after washout” value is reported as “Some growth recovery (though not significant)”. In addition, the “Cp sensitivity to inhibition in AhR KO cells” value in the series on C. parvum [12] is given as “remained sensitive”. Further, in the series on C. parvum [6], the “Effect on Cp growth, treatment 0–4 hpi only” value is reported as “neither indole nor 7CNI inhibited Cp growth” and the “Effect on Cp infection, treatment started 4 hpi (4–24 hpi)” value is “significantly inhibited Cp infection”. Moreover, in the series on C. parvum [6] (20 h before infection), the “Effect on Cp infection of pre-treatment of host cells” value is given as “did not affect subsequent Cp infection”. For the same compound, in the series with C. parvum [1], the concentration giving a half-maximal response (EC50) turned out to be 411 µM. Further, in [7], the “Cp oocysts shed in the feces” value is listed as “no significant effect on Cp infection in vivo” and the Median survival time came to 17 dpi. Further, the “MitoTracker staining of Cp mitosomes” value in the series with Cp mitosome was “significantly decreased MitoTracker staining of Cp mitosomes”. Besides, in the series with HCT-8 cells [13], the Downregulated genes is recorded as 11 genes, the “Genes significantly differentially expressed after treatment” value is 68 genes and the Upregulated genes is given as 57 genes.

Consider `C[C@H](CCC(=O)O)[C@H]1CC[C@H]2[C@@H]3CC[C@@H]4C[C@H](O)CC[C@]4(C)[C@H]3CC[C@]12C` [Lithocholic acid], for which, in the series with HCT-8 cells [10], the “Host toxicity in the initial screen” value is given as “significant host toxicity at 1 mM”. The “Effect on Cp growth in the primary metabolite screen” value in the series with C. parvum [2] is “significantly inhibited Cp growth”.

Take `CCCCC[C@H](O)/C=C/[C@H]1[C@H](O)CC(=O)[C@@H]1C/C=C\CCCC(=O)O` [Prostaglandin E2]: the “Host toxicity in the initial screen” value with HCT-8 cells [10] was “significant host toxicity at 1 mM”.

In the case of `Cc1ncc(CO)c(C=O)c1O` [Pyridoxal hydrochloride], in the series with C. parvum [2], the “Effect on Cp growth in the primary metabolite screen” value is “significantly inhibited Cp growth”. Further, in the series on C. parvum [1], the EC50 turned out to be 213 µM. In the series with C. parvum [1] (host value from nuclei count), the “Fold Selectivity (HCT-8 EC50 divided by Cp EC50)” value was determined as 44.6 fold.

For `O=C(O)C(O)Cc1c[nH]c2ccccc12` (stereo not drawn) [indole-3-lactic acid], the “Effect on Cp infection in the indole analog screen” value in the series with C. parvum [1] is on record as “exceptions”.

On to `CC[C@H]1/C=C/C=C/C[C@@H](C)[C@H](O)[C@@](C)(O)C(=O)[C@@H](C)[C@H](O)[C@@H](C)C(=O)[C@@H](C)[C@H](O)[C@@H](C)/C=C/C(=O)O[C@@H]2[C@H](C)[C@H](CC1)O[C@]1(CC[C@H](C)[C@H](C[C@@H](C)O)O1)[C@H]2C` [oligomycin], for which, in the series on C. parvum [8] (Cryptosporidium parvum, HCT-8, 24 h), the concentration giving a half-maximal response (EC50) was 20.6 µM.

The values are drawn from PMC10530208 (Cell reports, 2023).
